Reference: patent publication US20240148821A1, “PHARMACEUTICAL USE OF CYCLIC PEPTIDE COMPOUND” (CHUGAI SEIYAKU KABUSHIKI KAISHA, priority 2021, published 2024)
pIC50: −log10 of the molar value. Bridge positions count the residues as written; N and C are the ends. Square brackets hold non-standard residues; d marks the D form. Peptide text beside a SMILES is read from it. * marks the point of attachment. hPhe(3-Cl-4-CF3) = N[C@@H](CCc1ccc(C(F)(F)F)c(Cl)c1)C(=O)O; NMePhe(4-CF3) = CN[C@@H](Cc1ccc(C(F)(F)F)cc1)C(=O)O; NMePhe(3,4-F2) = CN[C@@H](Cc1ccc(F)c(F)c1)C(=O)O; 3Oxa8azabicyclo(3.2.1)octane = C1CC2COCC1N2*; hPhe(4-Cl) = N[C@@H](CCc1ccc(Cl)cc1)C(=O)O; NMeGly(cPent) = CN[C@H](C(=O)O)C1CCCC1; Met(O2) = CS(=O)(=O)CC[C@H](N)C(=O)O; NMeAla(cPr) = CN[C@@H](CC1CC1)C(=O)O; NMeCha = CN[C@@H](CC1CCCCC1)C(=O)O; NMeAhp(2) = CCCCC[C@H](NC)C(=O)O; NMeChg = CN[C@H](C(=O)O)C1CCCCC1; NMeI = CC[C@H](C)[C@H](NC)C(=O)O; N(CH2CH2)2CF2 = FC1(F)CCN(*)CC1; NMeD = CN[C@@H](CC(=O)O)C(=O)O; NMeL = CN[C@@H](CC(C)C)C(=O)O; NMeV = CN[C@H](C(=O)O)C(C)C; NMeS = CN[C@@H](CO)C(=O)O; NMeA = CN[C@@H](C)C(=O)O; Piperidide = C1CCN(*)CC1; Pyrrolidide = C1CCN(*)C1; Ac5c = NC1(C(=O)O)CCCC1; Aze = O=C(O)[C@@H]1CCN1; Sar = CNCC(=O)O; Propyl = CCC*

Columns and labels:
[1] = tested on: Human pancreatic cancer cell line AsPC-1 (G12D mutation Kras); experiment: AsPC-1 cell growth inhibition (AsPC-1 CGI); assay type: cell-based; conditions: read-out: AsPC-1 cell growth inhibition, 50% growth inhibitory concentration (IC50 value); 96 hours, CellTiter-Glo, values classified in ranges
Experimental: Test compounds were serially dilated with dimethyl sulfoxide, and 200 nL was then dispensed to a U-bottom 96-well plate using Labcyte Echo. […] The cell suspension was dispensed to a. plate containing a test compound at 100 μL per well and incubated at 37° C. in a 5% carbon dioxide gas incubator. 96 hours later, 80 μL of CellTiter-Glo (Promega) was added to each well and fluorescence was measured.

[2] = target: protein-protein interaction between Kras and SOS1 (biotin-tagged human Kras loaded with GDP, His-tagged human SOS1) (Homo sapiens (Human), UniProt P01116, G12D); experiment: Protein-protein interaction inhibition between Kras and SOS1 (KrasG12D-SOS PPI) using AlphaScreen; assay type: biochemical; conditions: AlphaScreen; biotin-tagged human Kras loaded with GDP, His-tagged human SOS1; read-out: KRAS G12D-SOS PPI IC50;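 also: kras produced in E. coli, Ni-coupled donor beads and streptavidin acceptor beads, excitation 680 nm with emission detected at 520–620 nm via singlet oxygen transfer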

Structure (SMILES)	pIC50 [1]	pIC50 [2]
CC[C@H](C)[C@@H]1NC(=O)[C@H](C)N(C)C(=O)C[C@@H](C(=O)N2CCCCC2)N(C)C(=O)[C@H](C(C)C)N(C)C(=O)C2(CCCC2)NC(=O)[C@H](Cc2ccc(F)c(F)c2)N(C)C(=O)[C@H](CCc2ccc(C(F)(F)F)c(Cl)c2)NC(=O)CN(C)C(=O)[C@H](CC2CCCCC2)N(C)C(=O)CN(C)C(=O)CN(C)C1=O [Compound 171] ([NMeA]I[Sar][Sar][NMeCha][Sar][hPhe(3-Cl-4-CF3)][NMePhe(3,4-F2)][Ac5c][NMeV][NMeD]-Piperidide; lactam N-11)	< 6.30	7.85
CC[C@H](C)[C@@H]1NC(=O)[C@H](CC(C)C)N(C)C(=O)C[C@@H](C(=O)N2CCCCC2)N(C)C(=O)[C@H](CC2CC2)N(C)C(=O)C2(CCCC2)NC(=O)[C@@H]2CCCN2C(=O)[C@H](CCc2ccc(C(F)(F)F)c(Cl)c2)NC(=O)CN(C)C(=O)[C@H](CC2CCCCC2)N(C)C(=O)[C@@H]2CCN2C(=O)[C@H](C)N(C)C1=O [Compound 172] ([NMeL]I[NMeA][Aze][NMeCha][Sar][hPhe(3-Cl-4-CF3)]P[Ac5c][NMeAla(cPr)][NMeD]-Piperidide; lactam N-11)	< 6.30	8.40
CC(C)C[C@H]1C(=O)N[C@@H](CCS(C)(=O)=O)C(=O)N(C)[C@@H](C)C(=O)N2CC[C@H]2C(=O)N(C)[C@@H](CC2CCCCC2)C(=O)N(C)CC(=O)N[C@@H](CCc2ccc(C(F)(F)F)c(Cl)c2)C(=O)N2CCC[C@H]2C(=O)NC2(CCCC2)C(=O)N(C)[C@@H](C(C)C)C(=O)N(C)[C@H](C(=O)N2CCCCC2)CC(=O)N1C [Compound 174] ([NMeL][Met(O2)][NMeA][Aze][NMeCha][Sar][hPhe(3-Cl-4-CF3)]P[Ac5c][NMeV][NMeD]-Piperidide; lactam N-11)	< 6.30	7.24
CCCOC[C@H]1C(=O)N(C)CC(=O)N[C@@H](CCc2ccc(C(F)(F)F)c(Cl)c2)C(=O)N2CCC[C@H]2C(=O)NC2(CCCC2)C(=O)N(C)[C@@H](C2CCCC2)C(=O)N(C)[C@H](C(=O)N2C3CCC2COC3)CC(=O)N(C)[C@@H](CC(C)C)C(=O)N[C@@H]([C@@H](C)CC)C(=O)N(C)[C@@H](C)C(=O)N2CC[C@H]2C(=O)N1C [Compound 176] ([NMeL]I[NMeA][Aze][NMeS](Propyl)[Sar][hPhe(3-Cl-4-CF3)]P[Ac5c][NMeGly(cPent)][NMeD]-{3Oxa8azabicyclo(3.2.1)octane}; lactam N-11)	≥ 7.70	8.85
CC[C@H](C)[C@@H]1NC(=O)[C@H](CC(C)C)N(C)C(=O)C[C@@H](C(=O)N2CCCCC2)N(C)C(=O)[C@H](C(C)C)N(C)C(=O)C2(CCCC2)NC(=O)[C@H](CC(=O)N2CCC(F)(F)CC2)N(C)C(=O)[C@H](CCc2ccc(Cl)cc2)NC(=O)CN(C)C(=O)[C@H](CC2CCCCC2)N(C)C(=O)CN(C)C(=O)CN(C)C1=O [Compound 177] ([NMeL]I[Sar][Sar][NMeCha][Sar][hPhe(4-Cl)][NMeD](N(CH2CH2)2CF2)[Ac5c][NMeV][NMeD]-Piperidide; lactam N-11)	< 6.30	7.35
CC[C@H](C)[C@@H]1NC(=O)[C@H](CC(C)C)N(C)C(=O)C[C@@H](C(=O)N2CCCCC2)N(C)C(=O)[C@H](C(C)C)N(C)C(=O)C2(CCCC2)NC(=O)[C@@H]2CCCN2C(=O)[C@H](CCc2ccc(C(F)(F)F)c(Cl)c2)NC(=O)CN(C)C(=O)[C@H](CC2CC2)N(C)C(=O)[C@@H]2CCN2C(=O)[C@H](C)N(C)C1=O [Compound 195] ([NMeL]I[NMeA][Aze][NMeAla(cPr)][Sar][hPhe(3-Cl-4-CF3)]P[Ac5c][NMeV][NMeD]-Piperidide; lactam N-11)	< 6.30	8.02
CC[C@H](C)[C@@H]1NC(=O)[C@H](CC(C)C)N(C)C(=O)C[C@@H](C(=O)N2CCCCC2)N(C)C(=O)[C@H](C2CCCCC2)N(C)C(=O)C2(CCCC2)NC(=O)[C@H](CC2CC2)N(C)C(=O)[C@H](CCc2ccc(C(F)(F)F)c(Cl)c2)NC(=O)CN(C)C(=O)[C@H](CC2CCCCC2)N(C)C(=O)CN(C)C(=O)CN(C)C1=O [Compound 200] ([NMeL]I[Sar][Sar][NMeCha][Sar][hPhe(3-Cl-4-CF3)][NMeAla(cPr)][Ac5c][NMeChg][NMeD]-Piperidide; lactam N-11)	< 6.30	7.89
CC[C@H](C)[C@@H]1NC(=O)[C@H](CC(C)C)N(C)C(=O)C[C@@H](C(=O)N2CCCCC2)N(C)C(=O)[C@H](C2CCCCC2)N(C)C(=O)C2(CCCC2)NC(=O)[C@H](C)NC(=O)[C@H](CCc2ccc(C(F)(F)F)c(Cl)c2)NC(=O)CN(C)C(=O)[C@H](CC2CCCCC2)N(C)C(=O)CN(C)C(=O)CN(C)C1=O [Compound 205] ([NMeL]I[Sar][Sar][NMeCha][Sar][hPhe(3-Cl-4-CF3)]A[Ac5c][NMeChg][NMeD]-Piperidide; lactam N-11)	< 6.30	9.31
CCCCC[C@H]1C(=O)N[C@@H]([C@@H](C)CC)C(=O)N[C@@H](C)C(=O)N2CC[C@H]2C(=O)N(C)[C@@H](Cc2ccc(C(F)(F)F)cc2)C(=O)N(C)CC(=O)N[C@@H](CCc2ccc(C(F)(F)F)c(Cl)c2)C(=O)N2CCC[C@H]2C(=O)NC2(CCCC2)C(=O)N(C)[C@@H]([C@@H](C)CC)C(=O)N(C)[C@H](C(=O)N2CCCC2)CC(=O)N1C [Compound 209] ([NMeAhp(2)]IA[Aze][NMePhe(4-CF3)][Sar][hPhe(3-Cl-4-CF3)]P[Ac5c][NMeI][NMeD]-Pyrrolidide; lactam N-11)	≥ 7.70	8.80
